The target of this experiment is Muscarinic acetylcholine receptor M3 (Homo sapiens, UniProt P20309). Briefly: Binding affinity for human cloned Muscarinic M3 receptors.
Sequence of Muscarinic acetylcholine receptor M3 (P20309 whole entry): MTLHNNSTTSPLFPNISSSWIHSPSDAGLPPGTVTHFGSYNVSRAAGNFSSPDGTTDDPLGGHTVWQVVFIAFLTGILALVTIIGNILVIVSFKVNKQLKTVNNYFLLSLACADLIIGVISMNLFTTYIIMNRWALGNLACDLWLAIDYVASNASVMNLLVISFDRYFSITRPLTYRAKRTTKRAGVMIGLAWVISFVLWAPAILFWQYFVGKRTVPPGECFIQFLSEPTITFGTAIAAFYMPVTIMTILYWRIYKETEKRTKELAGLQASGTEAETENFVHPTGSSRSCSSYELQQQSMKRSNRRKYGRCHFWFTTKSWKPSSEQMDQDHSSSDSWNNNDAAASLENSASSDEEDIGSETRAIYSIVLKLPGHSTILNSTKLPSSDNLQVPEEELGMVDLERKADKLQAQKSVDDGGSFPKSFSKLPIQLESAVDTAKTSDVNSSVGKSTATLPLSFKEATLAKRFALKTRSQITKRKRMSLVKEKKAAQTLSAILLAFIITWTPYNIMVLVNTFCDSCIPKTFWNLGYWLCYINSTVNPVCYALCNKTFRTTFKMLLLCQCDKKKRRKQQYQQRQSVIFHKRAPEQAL

Usually Ki stands for the equilibrium dissociation constant of an inhibitor or competing ligand from its target. High values mean lower affinity, low ones higher affinity. `CC(C)=CCCN1CCC(NC(=O)[C@](O)(c2ccccc2)C2CCCC2)CC1` registered a Ki of 4.2 nM.

(Values after ChEMBL document CHEMBL1132129, “Stereoselective synthesis of a new muscarinic M3 receptor antagonist, J-104129” (Bioorg Med Chem Lett, 1999).)
